13 compounds from US20230091225A1, “Bifunctional chimeric heterocyclic compounds for targeted degradation of androgen receptors and use thereof” (HINOVA PHARMACEUTICALS INC., priority 2019, published 2023) can be followed below.

Some results are limits rather than exact numbers.

The first assay concerns LNCaP/AR cells. Briefly: Inhibition of proliferation of LNCaP/AR prostate cancer cells (CCK-8). It counts as cell-based. The settings on record: 144 h; proliferation of LNCap/AR cells, 6 days, CCK-8; read-out: IC50.
By IC50 is commonly meant the concentration at which inhibition is half-maximal. As for `[2H]C1([2H])c2cc(C#CCCCOCC(=O)N[C@H](C(=O)N3C[C@H](O)C[C@H]3C(=O)N[C@@H](C)c3ccc(-c4scnc4C)cc3)C(C)(C)C)ccc2C(=O)N1[C@H]1C(C)(C)[C@H](Oc2ccc(C#N)c(Cl)c2)C1(C)C` [Compound 403], the IC50 is < 0.1 µM. Take `Cc1ncsc1-c1ccc([C@H](C)NC(=O)[C@@H]2C[C@@H](O)CN2C(=O)[C@@H](NC(=O)COCCCCC#Cc2ccc(C(=O)N[C@H]3C(C)(C)[C@H](Oc4ccc(C#N)c(Br)c4)C3(C)C)cc2)C(C)(C)C)cc1` [Compound 404]: the IC50 is < 0.1 µM. `Cc1ncsc1-c1ccc([C@H](C)NC(=O)[C@@H]2C[C@@H](O)CN2C(=O)[C@@H](NC(=O)COCCCCCCc2ccc3c(c2)CN([C@H]2C(C)(C)[C@H](Oc4ccc(C#N)c(Cl)c4)C2(C)C)C3=O)C(C)(C)C)cc1` [Compound 408, (2S,4R)-1-((S)-2-(2-((6-(2-((1r,3r)-3-(3-chloro-4-cyanophenoxy)-2,2,4,4-tetramethylcyclobutyl)-1-oxoisoindolin-5-yl)hexyl)oxy)acetamide)-3,3-dimethylbutyryl)-4-hydroxy-N-((S)-1-(4-(4-methylthiazol-5-yl)phenyl)ethyl) pyrrolidine-2-carboxamide]: the IC50 was 0.1 to 0.5 µM.

`Cc1ncsc1-c1ccc([C@H](C)NC(=O)[C@@H]2C[C@@H](O)CN2C(=O)[C@@H](NC(=O)COCC2CCN(c3ccc4c(c3)CN([C@H]3C(C)(C)[C@H](Oc5ccc(C#N)c(Cl)c5)C3(C)C)C4=O)CC2)C(C)(C)C)cc1` [Compound 409]: the IC50 was < 0.1 µM.

As to `CC(=O)O[C@@H]1C[C@@H](C(=O)N[C@@H](C)c2ccc(-c3scnc3C)cc2)N(C(=O)[C@@H](NC(=O)COCC2CCN(c3ccc4c(c3)CN([C@H]3C(C)(C)[C@H](Oc5ccc(C#N)c(Cl)c5)C3(C)C)C4=O)CC2)C(C)(C)C)C1` [Compound 410], the IC50 is < 0.1 µM. Consider `Cc1ncsc1-c1ccc([C@H](C)NC(=O)[C@@H]2C[C@@H](O)CN2C(=O)[C@@H](NC(=O)COCCCCCNc2ccc3c(c2)CN([C@H]2C(C)(C)[C@H](Oc4ccc(C#N)c(Cl)c4)C2(C)C)C3=O)C(C)(C)C)cc1` [Compound 411], for which the IC50 was < 0.1 µM. Regarding `CC(=O)O[C@@H]1C[C@@H](C(=O)N[C@@H](C)c2ccc(-c3scnc3C)cc2)N(C(=O)[C@@H](NC(=O)COCCCCCNc2ccc3c(c2)CN([C@H]2C(C)(C)[C@H](Oc4ccc(C#N)c(Cl)c4)C2(C)C)C3=O)C(C)(C)C)C1` [Compound 412], the IC50 is < 0.1 µM. `Cc1ncsc1-c1ccc([C@H](C)NC(=O)[C@@H]2C[C@@H](O)CN2C(=O)[C@@H](NC(=O)COCCCCCNc2ccc3c(c2)CN([C@H]2C(C)(C)[C@H](Oc4ccc(C#N)c(Br)c4)C2(C)C)C3=O)C(C)(C)C)cc1` [Compound 433, (2S,4R)-1-((S)-2-(2-((5-((2-((1r,3r)-3-(3-bromo-4-cyanophenoxy)-2,2,4,4-tetramethylcyclobutyl)-1-oxoisoindolin-5-yl)amino)pentyl)oxy)acetylamino)-3,3-dimethylbutyryl)-4-hydroxy-N-((S)-1-(4-(4-methylthiazole5-yl)phenyl)ethyl) pyrrolidinyl-2-carboxamide]: the IC50 is > 1 µM.

The assay is the same for the next values; noted with them: proliferation of LNCap/AR cells, 6 days, CCK-8; read-out: IC50.
On to “(2R,4R)-1-((S)-2-(2-((1-(3-(2-((1r,3r)-3-(3-chloro-4-cyanophenoxy)-2,2,4,4-tetramethylcyclobutyl)-1-oxoisoindolin-5-yl)prop-2-yn-1-yl)azetidine-3-yl)oxy) acetylamino)-3,3-dimethylbutyryl)-4-hydroxy-N-((S)-1-(4-(4-(4-methylthiazol-5-yl)phenyl)ethyl)pyrrolidine-2-carboxamide [Compound 40]”, for which the IC50 was 0.1 to 0.5 µM. As to “(2R,4R)-1-((S)-2-(2-((5-((4-((1r,3r)-3-(4-(4H-1,2,4-triazol-1-yl)phenoxy)-2,2,4,4-tetramethylcyclobutyl)carbamoyl)phenyl)amino)pentyl)oxy)acetamide)-3,3-dimethylbutyryl)-4-hydroxy-N-((S)-1-(4-(4-methylthiazol-5-yl)phenyl)ethyl) pyrrolidine-2-carboxamide [Compound 405]”, the IC50 was > 1 µM.

In the case of “(2R,4R)-1-((S)-2-(2-((6-(4-(((1r,3r)-3-(3-chloro-4-cyanophenoxy)-2,2,4,4-tetramethylcyclobutyl)(methoxy)benzamido)hex-5-yn-1-)oxy)acetamido)-3,3-dimethylbutyryl)-4-hydroxy-N-((S)-1-(4-(4-methylthiazol-5-)phenyl)ethyl) tetrahydropyrrole-2-amide [Compound 435]”, the IC50 was 0.5 to 1 µM. Same read-out and setting: for “(2S,4R)-1-((S)-2-(2-((2-((5-(1r,3r)-3-(3-chloro-4-cyanophenoxy)-2,2,4,4-tetramethylcyclobutyl)-1-oxoisoindolin-5-yl)oxy)pentyl)oxy)acetamide)-3,3-dimethylbutyryl)-4-hydroxy-N-((S)-1-(4-(4-methylthiazol-5-yl)phenyl)ethyl) pyrrolidine-2-carboxamide [Compound 406]” the value was 0.1 to 0.5 µM; for “(2S,4R)-1-((S)-2-(3-((4-(2-((1r,3r)-3-(3-chloro-4-cyanophenoxy)-2,2,4,4-tetramethylcyclobutyl)-1-oxoisoindolin-5-yl)3-butynoxy)propylamino)-3,3-dimethylbutanol)-4-hydroxy-N-(S)-1-(4-(4-methylthiazole)phenyl)ethyl) formamide [Compound 34]”, < 0.1 µM.
